Some test systems named below: HL-60(TB) leukemia; NCI/ADR-RES ovarian; MDA-MB-231 breast; HCC-2998 colon; NCI-H226 lung; COLO 205 colon; RPMI-8226 leukemia; OVCAR-3 ovarian; IGROV1 ovarian; NCI-H460 lung.
Holding throughout (experiment): NCI anticancer screen, dose series, 48 h

Structures are written as SMILES.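 Test compounds were applied to cells in 96-well plates for 48 hours at 5 doses. GI50: concentration for 50% inhibition of growth. Definition used: TGI = concentration required for complete inhibition of growth.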 Bounds are passed on as bounds.

For `O=C(CCCCCCc1nc2ccc(Br)cc2[nH]1)NO`, the GI50 is 461 nM with HL-60(TB) leukemia; 216 nM in the experiment on NCI/ADR-RES ovarian; 824 nM in the experiment on MDA-MB-231 breast; 777 nM in the experiment on HCC-2998 colon; 1650 nM in the experiment with NCI-H226 lung; 975 nM with COLO 205 colon. Besides, the GI50 in the experiment on RPMI-8226 leukemia was 411 nM; in the experiment on OVCAR-3 ovarian it was 313 nM; in the experiment with IGROV1 ovarian, 523 nM; with NCI-H460 lung it was 386 nM. Also, the TGI in the experiment with HL-60(TB) leukemia is more than 100000 nM; in the experiment with NCI/ADR-RES ovarian, 1870 nM; in the experiment with MDA-MB-231 breast, 25000 nM; in the experiment with HCC-2998 colon it was 3080 nM; with NCI-H226 lung, 7370 nM; in the experiment with COLO 205 colon, 5070 nM. Also, the TGI with RPMI-8226 leukemia is more than 100000 nM; in the experiment on OVCAR-3 ovarian it was 1610 nM; with IGROV1 ovarian, 2450 nM; in the experiment with NCI-H460 lung it was 10600 nM.

Consider `CC/C=C/[C@@H]1C=C[C@@H]2CCC[C@H]2[C@@H]1CC[C@H](O)[C@H](C)N`, for which the GI50 with HL-60(TB) leukemia is 1330 nM; in the experiment on NCI/ADR-RES ovarian, 1970 nM; with MDA-MB-231 breast, 1780 nM; in the experiment on HCC-2998 colon, 1420 nM; in the experiment on NCI-H226 lung, 11900 nM; in the experiment on COLO 205 colon it was 1360 nM. Besides, the GI50 was 3070 nM with RPMI-8226 leukemia, 1590 nM in the experiment on OVCAR-3 ovarian, 1500 nM in the experiment with IGROV1 ovarian and 1840 nM in the experiment with NCI-H460 lung. Besides, the TGI in the experiment on HL-60(TB) leukemia is 2910 nM; with NCI/ADR-RES ovarian, 4400 nM; with MDA-MB-231 breast, 3220 nM; with HCC-2998 colon, 2740 nM; in the experiment with NCI-H226 lung it was 27600 nM; in the experiment on COLO 205 colon it was 2640 nM. Also, the TGI in the experiment on RPMI-8226 leukemia was 9790 nM; in the experiment on OVCAR-3 ovarian, 2930 nM; in the experiment with IGROV1 ovarian, 2920 nM; with NCI-H460 lung it was 3460 nM.

Regarding `O=c1ccc2nc(-c3ccccc3)nn(-c3ccccc3)c-2c1`, the GI50 is 362 nM in the experiment with HL-60(TB) leukemia; 8110 nM in the experiment with NCI/ADR-RES ovarian; 1880 nM with MDA-MB-231 breast; 5130 nM in the experiment with HCC-2998 colon; 2000 nM in the experiment on NCI-H226 lung; 589 nM in the experiment on COLO 205 colon. Also, the GI50 is 2020 nM with RPMI-8226 leukemia, 1010 nM in the experiment on OVCAR-3 ovarian, 1420 nM in the experiment on IGROV1 ovarian and 6630 nM in the experiment on NCI-H460 lung. Further, the TGI was 1240 nM with HL-60(TB) leukemia; 48400 nM with NCI/ADR-RES ovarian; 3840 nM in the experiment on MDA-MB-231 breast; 12300 nM in the experiment on HCC-2998 colon; 4210 nM in the experiment with NCI-H226 lung; 1800 nM with COLO 205 colon. For the same molecule, the TGI with RPMI-8226 leukemia was determined as 5320 nM; with OVCAR-3 ovarian it was 2340 nM; with IGROV1 ovarian it was 3470 nM; in the experiment on NCI-H460 lung, 18300 nM.

Consider `Cc1ncc(C(=O)Nc2ccc(CN3CCN(C)CC3)c(C(F)(F)F)c2)cc1C#Cc1c(N)ncc2ccc(C#N)cc12`, for which the GI50 with HL-60(TB) leukemia was 9240 nM; in the experiment on NCI/ADR-RES ovarian, 5060 nM; in the experiment with MDA-MB-231 breast, 161 nM; with HCC-2998 colon it was 4960 nM; in the experiment with NCI-H226 lung it was 451 nM; with COLO 205 colon, 59 nM. In addition, the GI50 in the experiment with RPMI-8226 leukemia was 1210 nM; with OVCAR-3 ovarian it was 1570 nM; in the experiment with IGROV1 ovarian, 111 nM; in the experiment with NCI-H460 lung, 4050 nM. The TGI is more than 50000 nM with HL-60(TB) leukemia; 16800 nM in the experiment with NCI/ADR-RES ovarian; 1890 nM in the experiment with MDA-MB-231 breast; more than 40900 nM in the experiment with HCC-2998 colon; 2300 nM with NCI-H226 lung; 8050 nM with COLO 205 colon. Further, the TGI is 9180 nM with RPMI-8226 leukemia, 8540 nM with OVCAR-3 ovarian, 4000 nM in the experiment on IGROV1 ovarian and 12100 nM in the experiment on NCI-H460 lung.

In the case of `CC1CN(CCO)CC(C)O1` (centres undefined), the TGI in the experiment on HL-60(TB) leukemia, in the experiment on NCI/ADR-RES ovarian, with MDA-MB-231 breast, with HCC-2998 colon, in the experiment on NCI-H226 lung and in the experiment with COLO 205 colon was more than 100000 nM each time. In addition, the TGI with RPMI-8226 leukemia, in the experiment on OVCAR-3 ovarian, in the experiment on IGROV1 ovarian and in the experiment with NCI-H460 lung was more than 100000 nM each time.

On to `CC[C@]1(O)C[C@@H]2CN(Cc3c([nH]c4ccccc34)[C@@](C(=O)OC)(c3cc4c(cc3OC)N(C)[C@H]3[C@@](O)(C(=O)OC)[C@H](OC(C)=O)[C@]5(CC)[C@@H]6C[C@@H]6CN6CC[C@]43[C@@H]65)C2)C1`, for which the GI50 was 15.9 nM with HL-60(TB) leukemia; more than 4380 nM in the experiment on NCI/ADR-RES ovarian; 76.1 nM with MDA-MB-231 breast; 116 nM in the experiment on HCC-2998 colon; more than 1440 nM with NCI-H226 lung; 29.8 nM with COLO 205 colon. Besides, the GI50 in the experiment on RPMI-8226 leukemia was 37.2 nM; in the experiment on OVCAR-3 ovarian, 16.2 nM; in the experiment with IGROV1 ovarian, 452 nM; in the experiment on NCI-H460 lung, 109 nM. Also, the TGI is more than 4380 nM in the experiment on HL-60(TB) leukemia; more than 4380 nM in the experiment on NCI/ADR-RES ovarian; more than 2610 nM with MDA-MB-231 breast; more than 4380 nM in the experiment with HCC-2998 colon; more than 4380 nM with NCI-H226 lung; 252 nM with COLO 205 colon. In addition, the TGI with RPMI-8226 leukemia, with IGROV1 ovarian and in the experiment on NCI-H460 lung was more than 4380 nM each time.

These data come from PubChem BioAssay (NCI).
